Results taken from patent US10744181B2, “Glycopeptide derivatives for use in the treatment and/or prevention and/or attenuation of fibrosis diseases” (TFCHEM, priority 2017, dated 2020).
Marks after values point to notes of the source that are not given here.

Experiments:
Format in all cases: cell-based, human
Collagen III = Collagen III synthesis (ELISA) in normal fibroblasts; settings: normal fibroblasts (NF), compound at 9.4 mM, 48 hours; ng collagen III per mg proteins
Experimental: (§1) Primary cultures of keloid fibroblasts (KF) and normal fibroblasts (NF) were obtained from operative wastes (keloid and abdominoplasty). After thawing, cells were grown in Dulbecco's modified Eagle's medium (DMEM) supplemented with 10% of fetal calf serum, 40 mg/l of gentamicin and 2 mg/l of fungizone (DMEMc), in an incubator at 37° C., 5% CO2. Culture medium was changed twice a week and cells were subcultured by trypsinization when confluence was reached. Cells were used under 10 passages.
(§2) Compound 1 was directly diluted in culture medium at 5 mg/ml.
(§3) Fibroblasts were seeded in 6 wells culture plate at the concentration of 0.08·10^6 cells/well (n=6). […]
(§4) The synthetized collagen quantity is expressed as the ratio of quantity of collagen vs quantity of total proteins in the sample.
(§5) The quantity of total protein was determined using a biochemical test, the bicinchoninic acid assay (BCA assay). […] Absorbance is read immediately at 550 nm (Spectrophotometer Multiscan Ex, Thermo). The standard curve is drawn and the sample protein concentration is determined with this curve. […]
Collagen III synthesis is performed by Enzyme-linked immunosorbent assay with an ELISA kit (USCN SEA576Hu, Euromedex). […] The enzyme-substrate reaction is terminated by the addition of sulfuric acid solution and the color change is measured spectrophotometrically at 450 nm. […]
(§6) Data are expressed as mean+/−sem. […]

Collagen I = Collagen I synthesis (ELISA) in normal fibroblasts; settings: normal fibroblasts (NF), compound at 9.4 mM, 48 hours; pg collagen I per mg proteins
Experimental: as §1, §2, §3, §4, §5
(§7) Collagen I synthesis was evaluated by Enzyme-linked immunosorbent assay with an ELISA kit (USCN SEA571Hu, Euromedex). […] The enzyme-substrate reaction is terminated by the addition of sulfuric acid solution and the color change is measured spectrophotometrically at 450 nm. […]
as §6

[1] = test system: collagen I/collagen III ratio; test: Collagen I/collagen III ratio in normal fibroblasts; settings: normal fibroblasts (NF), compound at 9.4 mM
Experimental: as §1, §2
Fibroblasts were seeded in 6 wells culture plate at the concentration of 0.08·10^6 cells/well (n=6). After 48 hours of culture, wells were washed with 3 ml of PBS. 2 ml of each solution of tested compound were added per wells. […]
as §4
as §7, with “nm. The concentration of collagen I in the samples is then determined by comparing the optical density of the samples to the standard curve. The results were expressed as pg of collagen I by mg of proteins.” for “nm.”

Q: For `C[C@H](NC(=O)[C@H](C)NC(=O)[C@@H](N)CCCCNCC(F)(F)[C@]1(O)O[C@H](CO)[C@H](O)[C@H](O)[C@H]1O)C(=O)O` [Compound 1], which “Protein Collagen III, Mean” value (Collagen III) is on record?
A: 6.57*** ng/mg

Q: What about the “Protein Collagen I, Mean” value (Collagen I) of the same molecule?
A: 28.85*** pg/mg

Q: And the “Ratio collagen I/collagen III” value [1]?
A: 4.39.10^−3
